We go through four molecules from US20250320211A1, “COMPOUND, COMPOSITION, AND ELECTROPHOTOGRAPHIC PHOTORECEPTOR” (MITSUBISHI CHEMICAL CORPORATION, priority 2022, published 2025).

The structures appear in SMILES notation.

The data set in a line: Evaluation of solubility in organic solvent. It is filed as physicochemical. The following applies: toluene/2-propanol mixed solvent. On the procedure:
Compounds 1 to 2 or Comparative Compounds 1 to 5 were respectively added to a mixed solvent of toluene/2-propanol=3/7 (mass ratio) at room temperature (25° C.) so as to have a concentration of 8% by mass, and stirred for 10 minutes with a rotor without heating or cooling. The state of dissolution was then visually observed, and the solubility was evaluated according to the following criteria.
When any residue was observed, the mixture was heated in a water bath at a constant temperature (40° C.) for 10 minutes as described below, and the state of dissolution was visually observed again to evaluate the solubility.
On to `C=CC(=O)OCCOC(=O)CCC(=O)OCC(CC(C)C)N1C(=O)c2ccc3c4ccc5c6c(ccc(c7ccc(c2c37)C1=O)c64)C(=O)N(C(COC(=O)CCC(=O)OCCOC(=O)C=C)CC(C)C)C5=O` (stereo not shown) [Comparative Compound 3], for which the “solubility in organic solvents (in words)” value is given as “poor solubility”. Next, `C=C(C)C(=O)OCC(COC(=O)C(=C)C)OC(=O)CCC(=O)OCC(COC(=O)CCC(=O)OC(COC(=O)C(=C)C)COC(=O)C(=C)C)N1C(=O)c2ccc3c4ccc5c6c(ccc(c7ccc(c2c37)C1=O)c64)C(=O)N(C(COC(=O)CCC(=O)OC(COC(=O)C(=C)C)COC(=O)C(=C)C)COC(=O)CCC(=O)OC(COC(=O)C(=C)C)COC(=O)C(=C)C)C5=O` [Comparative Compound 5]: “excellent solubility in organic solvents”; `CCCCCCC(CCCCCC)N1C(=O)c2ccc3c4ccc5c6c(ccc(c7ccc(c2c37)C1=O)c64)C(=O)N(C(CCCCCC)CCCCCC)C5=O` [Comparative Compound 2]: “poor solubility”; `C=C(C)C(=O)OCC(COC(=O)C(=C)C)OC(=O)CCC(=O)OCC(CC(C)C)N1C(=O)c2ccc3c4ccc5c6c(ccc(c7ccc(c2c37)C1=O)c64)C(=O)N(C(COC(=O)CCC(=O)OC(COC(=O)C(=C)C)COC(=O)C(=C)C)CC(C)C)C5=O` (stereo not shown) [Comparative Compound 4]: “excellent solubility in organic solvents”.
